Laboratory results: the NIST ThermoML archive (doi:10.1021/je900916e)

Experiment: cn = amount concentration of the nth substance listed, in mol/dm3
Details: 101 kPa, Liquid, Advanced Conductivity Orion 162A

CC[N+](CC)(CC)CC.O=C([O-])C(F)(F)C(F)(F)C(F)(F)C(F)(F)C(F)(F)C(F)(F)C(F)(F)F [tetraethylammonium perfluorooctanoate] + O
Details	electrical conductivity [S/m]
288.15 K, c1 = 0.000744	0.00332
288.15 K, c1 = 0.001478	0.00651
288.15 K, c1 = 0.0022	0.0094
288.15 K, c1 = 0.002913	0.0122
288.15 K, c1 = 0.003614	0.015
288.15 K, c1 = 0.004306	0.0176
288.15 K, c1 = 0.005101	0.0205
288.15 K, c1 = 0.005882	0.0233
288.15 K, c1 = 0.006651	0.0258
288.15 K, c1 = 0.007407	0.0275
288.15 K, c1 = 0.008152	0.0283
288.15 K, c1 = 0.009091	0.0292
288.15 K, c1 = 0.01011	0.0301
288.15 K, c1 = 0.01131	0.0311
288.15 K, c1 = 0.01266	0.0322
288.15 K, c1 = 0.01398	0.0332
288.15 K, c1 = 0.01543	0.0343
293.15 K, c1 = 0.000662	0.00339
293.15 K, c1 = 0.001316	0.00649
293.15 K, c1 = 0.001961	0.00944
293.15 K, c1 = 0.002597	0.0123
293.15 K, c1 = 0.003226	0.0149
293.15 K, c1 = 0.003846	0.0176
293.15 K, c1 = 0.004458	0.0201
293.15 K, c1 = 0.005063	0.0226
293.15 K, c1 = 0.00566	0.0249
293.15 K, c1 = 0.00625	0.027
293.15 K, c1 = 0.006832	0.029
293.15 K, c1 = 0.007407	0.0301
293.15 K, c1 = 0.007975	0.0309
293.15 K, c1 = 0.008536	0.0316
293.15 K, c1 = 0.00942	0.0325
293.15 K, c1 = 0.01029	0.0334
293.15 K, c1 = 0.01114	0.0342
293.15 K, c1 = 0.01218	0.0351
293.15 K, c1 = 0.01319	0.036
293.15 K, c1 = 0.01419	0.0369
293.15 K, c1 = 0.01516	0.0378
298.15 K, c1 = 0.000662	0.00389
298.15 K, c1 = 0.001316	0.00743
298.15 K, c1 = 0.001961	0.0108
298.15 K, c1 = 0.002597	0.0141
298.15 K, c1 = 0.003226	0.0172
298.15 K, c1 = 0.003846	0.0202
298.15 K, c1 = 0.004458	0.0231
298.15 K, c1 = 0.005063	0.0259
298.15 K, c1 = 0.00566	0.0286
298.15 K, c1 = 0.00625	0.0313
298.15 K, c1 = 0.006832	0.0329
298.15 K, c1 = 0.007407	0.0339
298.15 K, c1 = 0.007975	0.0348
298.15 K, c1 = 0.008536	0.0356
298.15 K, c1 = 0.00942	0.0366
298.15 K, c1 = 0.01029	0.0376
298.15 K, c1 = 0.01114	0.0386
298.15 K, c1 = 0.01218	0.0397
298.15 K, c1 = 0.01319	0.0409
298.15 K, c1 = 0.01419	0.042
298.15 K, c1 = 0.01516	0.0431
303.15 K, c1 = 0.000662	0.00431
303.15 K, c1 = 0.001316	0.00815
303.15 K, c1 = 0.001961	0.0119
303.15 K, c1 = 0.002597	0.0154
303.15 K, c1 = 0.003226	0.0189
303.15 K, c1 = 0.003846	0.0222
303.15 K, c1 = 0.004458	0.0254
303.15 K, c1 = 0.005063	0.0285
303.15 K, c1 = 0.00566	0.0314
303.15 K, c1 = 0.00625	0.0344
303.15 K, c1 = 0.006832	0.0365
303.15 K, c1 = 0.007407	0.038
303.15 K, c1 = 0.007975	0.0389
303.15 K, c1 = 0.008536	0.0398
303.15 K, c1 = 0.00942	0.0409
303.15 K, c1 = 0.01029	0.042
303.15 K, c1 = 0.01114	0.0431
303.15 K, c1 = 0.01218	0.0444
303.15 K, c1 = 0.01319	0.0457
303.15 K, c1 = 0.01419	0.047
303.15 K, c1 = 0.01516	0.0483
308.15 K, c1 = 0.000744	0.00544
308.15 K, c1 = 0.001478	0.0102
308.15 K, c1 = 0.0022	0.0148
308.15 K, c1 = 0.002913	0.0193
308.15 K, c1 = 0.003614	0.0234
308.15 K, c1 = 0.004306	0.0275
308.15 K, c1 = 0.004988	0.0316
308.15 K, c1 = 0.00566	0.0354
308.15 K, c1 = 0.006323	0.0391
308.15 K, c1 = 0.006977	0.0419
308.15 K, c1 = 0.007621	0.0433
308.15 K, c1 = 0.008467	0.0448
308.15 K, c1 = 0.009297	0.0462
308.15 K, c1 = 0.01011	0.0475
308.15 K, c1 = 0.01111	0.049
308.15 K, c1 = 0.01228	0.0508
308.15 K, c1 = 0.01361	0.0527
308.15 K, c1 = 0.01489	0.0545
308.15 K, c1 = 0.01632	0.0565
313.15 K, c1 = 0.000662	0.00523
313.15 K, c1 = 0.001316	0.0101
313.15 K, c1 = 0.001961	0.0146
313.15 K, c1 = 0.002597	0.0189
313.15 K, c1 = 0.003226	0.0231
313.15 K, c1 = 0.003846	0.0272
313.15 K, c1 = 0.004458	0.0312
313.15 K, c1 = 0.005063	0.0351
313.15 K, c1 = 0.00566	0.0388
313.15 K, c1 = 0.00625	0.0422
313.15 K, c1 = 0.006832	0.0455
313.15 K, c1 = 0.007407	0.047
313.15 K, c1 = 0.007975	0.0482
313.15 K, c1 = 0.008536	0.0493
313.15 K, c1 = 0.00942	0.0508
313.15 K, c1 = 0.01029	0.0523
313.15 K, c1 = 0.01114	0.0537
313.15 K, c1 = 0.01218	0.0554
313.15 K, c1 = 0.01319	0.0571
313.15 K, c1 = 0.01419	0.0587
313.15 K, c1 = 0.01516	0.0603
318.15 K, c1 = 0.000744	0.00628
318.15 K, c1 = 0.001478	0.0121
318.15 K, c1 = 0.0022	0.0177
318.15 K, c1 = 0.002913	0.023
318.15 K, c1 = 0.003614	0.028
318.15 K, c1 = 0.004306	0.033
318.15 K, c1 = 0.004988	0.0379
318.15 K, c1 = 0.00566	0.0424
318.15 K, c1 = 0.006323	0.0468
318.15 K, c1 = 0.006977	0.0504
318.15 K, c1 = 0.007621	0.0534
318.15 K, c1 = 0.008257	0.0548
318.15 K, c1 = 0.009091	0.0566
318.15 K, c1 = 0.00991	0.0583
318.15 K, c1 = 0.01091	0.0602
318.15 K, c1 = 0.01209	0.0624
318.15 K, c1 = 0.01342	0.0646
318.15 K, c1 = 0.01471	0.0667
318.15 K, c1 = 0.01614	0.0692
